Experimental data: patent US20130217765A1, “MULTIFUNCTIONAL NANOCONJUGATES AND USES THEREOF” (priority 2012, published 2013)

Tests used:
HeLa cells = assay: Duration of light exposure on HeLa cells treated with dye-modified TiO2 nanoparticles; format: cell-based; settings: dark or 30 minutes of 750 W halogen visible light, fixed 24 hours post exposure
Procedure: In this Example, we tested the duration of light exposure on cells treated with dye-modified TiO2 nanoparticles. […] Cells were fixed in 4% formaldehyde 24 hours post exposure and 1 μm slices fluorescence confocal images are presented. […] The cellular response is heterogeneous.

lamin B1 = assay: Lamin B1 integrity and distribution in HeLa cells, fluorescence confocal microscopy; format: cell-based; settings: light or no light
Procedure: (§1) HeLa cells were grown on #1 glass coverslips to approximately 20% confluence and then exposed to ARS-coated TiO2 nanoparticles or appropriate controls overnight. Respective samples were either exposed to no light or light with a Fiber-Lite MI-150 High Intensity Fiber Optic 150 W Halogen Light Illuminator for 10 min. All samples were fixed in 3.6% formaldehyde (Fisher Scientific, Waltham, Mass., USA) and permeabilized in 0.2% Triton-100× (Fisher Scientific) for 10 min. Cells were then stained with either a mouse monoclonal to emerin primary antibody (Abcam, Cambridge, Mass., USA) followed by an Alexa488 goat anti-mouse IgG (H+L) secondary antibody (Invitrogen, Grand Island, N.Y., USA) or a chicken polyclonal to lamin B1 primary antibody (Abcam) followed by an Alexa488 goat anti-chicken IgG (H+L) secondary antibody (Invitrogen). All samples were then stained with Hoechst 33342 (Sigma) and coverslips were mounted in P-phenylenediamine containing mounting media. Samples were imaged on an Olympus IX81-UCB Spinning Disc Confocal Microscope (Olympus, Center Valley, Pa., USA) using a 100 W mercury burner (Ushio, Tokyo, Japan), Brightline filters for DAPI, FITC, and TEXAS RED (Semrock, Rochester, N.Y., USA), and an ORCA-ER-1394 high-resolution digital camera (Hamamatsu, Japan). All images are presented as […] optical slice fluorescence overlays in either two or three dimensions. […]

emerin = assay: Emerin integrity and distribution in HeLa cells, fluorescence confocal microscopy; format: cell-based; settings: regardless of light treatment
Procedure: as §1

[1] = test system: kanamycin-resistant E. coli; assay: Bacterial assay: incubation with samples, halogen light, plating on kanamycin LB agar; format: cell-based; settings: incubated 10 minutes, 150 W halogen bulb 10 minutes, plated overnight at 37° C.
Procedure: When using dye-coated TiO2 nanoconjugates to inflict damage on bacteria, the dye alizarin red s was used (FIG. 24). The following protocol was used: a bacterial culture of kanamycin-resistant E. coli was grown overnight at 37° C. at 250 rpm and then stored at 4° C. for later use in the experiment. Aliquots of the starter bacterial culture were then incubated with either (1) dH2O, (2) alizarin red s, (3) 6 nm TiO2 nanoparticles, or (4) alizarin red s-coated-6 nm TiO2 nanoconjugates for 10 minutes. All samples were then exposed to a 150 W halogen bulb for 10 minutes and plated on kanamycin-containing LB agar plates, incubated overnight at 37° C., and photographed with a digital camera.

plasmid DNA = assay: Plasmid DNA nicking by agarose gel electrophoresis after light exposure; format: biochemical; settings: visible light, 150 W halogen bulb, 10 min
Procedure: The effect of visible light activated ARS-coated TiO2 nanoparticles was assessed by illuminating plasmid containing samples with a Fiber-Lite MI-150High Intensity Fiber Optic EKE 150 W21VHalogen Light Illuminator (Dolan-Jenner Industries, Boxborough, Mass., USA) for 10 min. […] All samples were then run on a 1.25% agarose gel at 60V for 4 h, stained with GelStar (Lonza, Mapleton, Ill., USA), and imaged on a Kodak Gel Logic 2200 Imaging System (Kodak, Rochester, N.Y., USA).
Considering these factors, we sought to determine the effect of visible light activated ARS-coated TiO2 nanoparticles on plasmid DNA integrity using a standard agarose gel electrophoresis technique developed by others. According to this assay, nicked (single-stranded DNA break), linear (double-stranded DNA break), and supercoiled (undamaged) plasmid DNA can be distinguished on an agarose gel by viewing differences in mobility (with the nicked plasmid DNA migrating at the slowest rate and supercoiled plasmid DNA migrating at the fastest rate) [13,15]. Samples were prepared that contained plasmid DNA and either (1) dH2O, (2) ARS, (3) TiO2 nanoparticles, or (4) ARS-coated TiO2 nanoparticles. […]

Compound	cellular responses (HeLa cells)	lamin B1 integrity and distribution (lamin B1)	emerin integrity and distribution (emerin)	bacterial growth (colonies on plate) [1]	nicking of plasmid DNA (plasmid DNA)
alizarin blue black b [ABBB]	no detectable cellular responses	–	–	–	–
O=C1c2ccccc2C(=O)c2c1cc(S(=O)(=O)[O-])c(O)c2O.[Na+] [ARS, alizarin red s]	–	normal lamin B1 integrity and distribution	normal emerin integrity and distribution	bacterial colonies are witnessed	slight expected increase in nicked plasmid DNA
